We go through one compound from patent US12161632B2, “Compositions and methods of treating cardiac fibrosis with ifetroban” (Cumberland Pharmaceuticals Inc., priority 2014, dated 2024).

Test [1] has as its system RV gene expression. Put plainly: RV RNA expression arrays in PAB/sham mice (Example V). The class given is in vivo. As to conditions: 30 mg/kg/day, 14 days. How it is done:
Following sacrifice, right ventricular hypertrophy was assessed in each animal as a percentage of heart weight. A random fraction of the right hearts were fixed in formalin for histology and examined for indices of fibrosis; other hearts were snap frozen for gene expression analysis via RNA microarray. Right hearts and lungs were collected for analysis of protein expression and gene expression array. Left lungs were fixed and stained. Platelet deposition was examined in small pulmonary artery vessels. The remaining organs were harvested and frozen in liquid nitrogen for potential gene expression analysis.
As part of this study, RNA extracted and expression analysis was performed using Mouse Genone 2.0 Affymetrix expression arrays. (FIG. 4C). The Array design was 2×2×2: Sham/Banded×Vehicle/Ifetroban×M/F. In total, there were 8 arrays; each array was a pool of RV from 3 mice. Only mice with an RVSP>30 were used for the banded groups. Banding itself altered 199 genes (ABS (Diff in averages)—Sum of standard deviations)>0.4 comparing vehicle banded to sham, and expression of 49 of those genes was enhanced by ifetroban (difference >0.4) and expression of 29 of those genes was attenuated by ifetroban (difference >0.4). […] Res., 2011 Jul. […] 15; 45(4):511-8.

The test system of test [2] is RV gene expression. Nature of the test: Gene expression arrays on pooled RV from sham or PAB mice (Example VII). The class given is in vivo. From the text: To determine the mechanism through which ifetroban reduced fibrosis and protected RV contractility, we performed gene expression arrays on sets of pooled RV from mice with sham or PAB surgery, with and without drug treatment. By principal components analysis strong effect of banding was found, and an effect of ifetroban only in mice that had undergone banding. […] In particular, there were changes in gene expression associated with adhesion, collagen organization, extracellular structure, and developmental processes.

Test [3] relates to RV monocytes / macrophages. Nature of the test: Cardiac monocytes: LysM-Cre lineage tracing and flow cytometry of RV (Example VII). In kind it is in vivo, mice. How it is done:
Both male and female age-matched C57Bl/6 or FVB/NJ mice, obtained by in-house breeding, were used for pulmonary artery banding. LysM-GFP mice were obtained by cross-breeding LysM-Cre×mTomato/GFP reporter mice B6.129P2-Lyz2tm1(cre)Ifo/J (a gift from Tim Blackwell)×Gt(ROSA)26Sortm4(ACTB-tdTomato, -EGFP)Luo (JAX stock #007676). The day following surgery, mice were given either 25 mg/kg/day IFETROBAN (Cumberland Pharmaceuticals Inc., Nashville, TN) in drinking water or normal drinking water (vehicle) for 2 weeks or 6 weeks prior to hemodynamic evaluation. Mice were weighed and water was changed once a week.
TP receptors are also expressed on monocytes, and blockade of these receptors may have immune-specific effects. To determine whether the decrease in fibrosis seen with TP receptor inhibition was due to decreased macrophage infiltration or proliferation in the RV, PAB on LysM-Cre mice expressing eGFP under the LysozymeM promoter was performed, where all cells that have ever had monocyte lineage are labeled with GFP, even if they have later differentiated. […] Transgenic LysM-Cre×flox-mTomato-flox eGFP mice were used to label cells of monocyte derivation in the RV. These mice express a fluorescent red, except in cells derived from monocyte lineage (even if they have later differentiated), which express a fluorescent green. […] Flow sorting of whole RV for circulating markers found a non-significant trend towards an increase in PA-banded mice that was blocked by ifetroban.

For test [4], the system named is cultured cardiomyocytes given exogenous TGF-ß. Nature of the test: TGF-ß signalling in cultured cardiomyocytes (PAI-1 expression, promoter luciferase). In kind it is cell-based. As to conditions: compared to vehicle-treated cells.
The mark [5] stands for this setting: only in the context of pressure overload.

With `CCCCCNC(=O)c1coc([C@H]2[C@@H](Cc3ccccc3CCC(=O)O)[C@@H]3CC[C@H]2O3)n1` [ifetroban, [1S-(1α,2α,3α,4α)]-2-[[3-[4-[(Pentylamino)carbonyl]-2-oxazolyl]-7-oxabicyclo[2.2.1]hept-2-yl]methyl]-benzenepropanoic acid], in the test with RV gene expression [1] (banded RV pools), the “number of the 199 banding-altered genes whose expression was attenuated (difference >0.4)” value came out at 29 genes and the “number of the 199 banding-altered genes whose expression was enhanced (difference >0.4)” value stood at 49 genes. Moreover, in the test on RV gene expression [1] (banded RV), the “expression of FBX032” value is “reduces the expression of FBX032”; the “expression of Nmrk2, Meox1, Nkd2, and Pkhd1” value is “enhances the expression of other genes”; the “expression of PDGF” value is on record as “reduces the expression of PDGF”; the “expression of genes involved with inhibition of TGF-Beta, Asporin and Ltbp2” value is recorded as “enhanced the expression”. Moreover, the “expression of genes related to collagen and cell-cell adhesion, particularly thrombospondin-4 (Thbs4)” value in the test with RV gene expression [1] (banded RV) is reported as “enhances the expression”. Besides, in the test on RV gene expression [1] (banded mice), the “expression of pro-fibrotic and inflammatory genes” value is given as “decreases expression”; the “expression of pro-muscularization genes” value is listed as “increases expression”. The “principal components analysis of RV gene expression” value with RV gene expression [2] (25 mg/kg/day, 2 weeks) is on record as “strong effect of ifetroban only in mice with banding”. The “Thbs4 expression (mRNA)” value in the test with RV gene expression [2] (PAB RV only) is “strongly enhances”. In addition, in the test on RV gene expression [2] (PAB mice), the “expression of antifibrotic genes” value is recorded as “increased expression” and the “expression of genes associated with fibrosis” value is given as “reduced expression”. Also, the “expression of genes associated with myogenic differentiation” value in the test with RV gene expression [2] (PAB mice versus banded controls) was “enhanced”. Moreover, the “RV expression of Cd14, Tlr8 and other pro-inflammatory genes” value in the test with RV gene expression [2] (PAB mice, 25 mg/kg/day, 2 weeks) is “decreased RV expression”. In the test with RV gene expression [2] (setting [5]), the “expression of genes associated with inflammatory cell recruitment” value is reported as “reduced expression” and the “genes associated with adaptive remodeling” value was “ifetroban-induced genes associated with adaptive remodeling”. Further, the “gene expression in mice with only sham surgeries” value in the test with RV gene expression [2] (sham, 25 mg/kg/day, 2 weeks) is recorded as “did not significantly change gene expression”. For the same compound, the “PAB-induced increase in green (monocyte lineage) cells in RV” value in test [3] (LysM-Cre reporter mice, ifetroban) is given as “not in ifetroban-treated mice”. Besides, in test [3] (wildtype mice, PAB), the “flow sorting of whole RV for circulating markers: non-significant trend towards an increase in PA-banded mice” value is “blocked”. For the same compound, in test [4], the “PAI-1 expression or promoter activity” value is reported as “no change”.
